Tests used:
[1] = tested on: human liver cancer HepG2 cell line; assay: Lipid droplet formation in human liver cancer cells, Oil Red staining; type: cell-based; details: HepG2, 24 h treatment, FIG. 3
Procedure: (§1) In-vivo antineoplastic activity and activity of inhibiting abnormal lipid metabolism of tumors of the RAs are verified by establishing a nude mouse subcutaneously transplanted tumor model with liver cancer cells.
0.5 g of pre-ground and pre-crushed dried Oil Red powder (purchased from Sigma Company) is weighed, and dissolved in a small amount of isopropanol. Then isopropanol is added to reach 100 ml. A solution is sealed in a brown bottle (or packaged with tin foil paper for avoiding light) for preservation at 4° C. as a storage solution, which may be preserved for a long time. When using, 6 ml of the solution is taken, and 4 ml of tri-distilled water is added to be evenly mixed. The mixed solution is filtered by qualitative filter paper into a working solution, which is used up within a few hours after diluted. An overnight human liver cancer HepG2 cell line is cultivated by a 10% FBS medium. Pancreatin is added for digestion to form a cell suspension, which is inoculated onto a 24-well plate according to an appropriate concentration. After 24 h, the RA-XII is added for treatment for 24 h. A cultivation solution is poured out carefully and slowly. Fixing is then conducted with 4% paraformaldehyde for 30 min. Staining is conducted with an Oil Red working solution for about 30 min at the room temperature. Washing is conducted with PBS twice. Pictures are taken under a microscope.

[2] = tested on: human liver cancer HepG2 cell line; assay: Growth inhibition of human liver cancer cells, SRB method; type: cell-based; details: HepG2, 24 h treatment, FIG. 1
Procedure: as §1
Cell viability is determined by adopting an SRB method. An overnight human liver cancer HepG2 cell line (purchased from the Cell Bank of Committee on Type Culture Collection of Chinese Academy of Sciences) is cultivated by a 10% FBS medium. Pancreatin is added for digestion to form a cell suspension, which is inoculated onto a 96-well plate according to an appropriate concentration at 100 μl/well. Cultivation is conducted in a CO2 incubator for 24 h until cells adhere to walls completely. Different final concentrations of RA-XII are added, after acting for 24 h, 50 μl of a 4° C. pre-cooled TCA solution (30%, w/v) is added into each well for fixing of the cells, and a final concentration of the TCA solution is 10%. The 96-well plate is transferred into a 4° C. refrigerator for fixing for 1 h after still standing for 5 min. The 96-well plate is taken out, washed 5 times with deionized water, and aired at a room temperature. […] Optical densities are determined at 540 nm by adopting a microplate reader.

[3] = tested on: human liver cancer HepG2 cell line; assay: Indexes related to lipid metabolism in human liver cancer cells (commercial kits); type: cell-based; details: HepG2, 24 h treatment, FIG. 2
Procedure: as §1
An overnight human liver cancer HepG2 cell line is cultivated by a 10% FBS medium. Pancreatin is added for digestion to form a cell suspension, which is inoculated onto a 6-well plate according to an appropriate concentration. After 24 h, the RA-V or the RA-XII is added for treatment for 24 h. Digestion is conducted with the pancreatin. Centrifugation is conducted for 5 to 10 min at a room temperature and 2000 rpm, and cells are collected. The cells are resuspended once with pre-cooled 1×PBS (4° C.), centrifuged for 5 to 10 min at 2000 rpm, and washed. By adopting commercial kits, contents of total cholesterol and triglycerides in the cells are detected through a single reagent GPO-PAP method respectively, and contents of low-density lipoproteins and high-density lipoproteins in the cells are detected through a double-reagent direct method (the commercial kits are purchased from the Nanjing Jiancheng Bioengineering Institute, with article numbers of A111-1, A110-1, A113-1 and A112-1 respectively).

[4] = tested on: tissues of HepG2 subcutaneously transplanted tumors; assay: Indexes related to lipid metabolism in tissues of subcutaneously transplanted tumors; type: in vivo, BABL/c nude mice; details: tumor tissues from Embodiment 4, RIPA lysate, FIG. 5
Procedure: (§2) HepG2 is diluted into […] with a serum-free MEM. 100 μL of cell suspension is taken and inoculated to left armpits of BABL/c nude mice subcutaneously, and grows for 7 days to form a tumor-bearing mouse model. Inoculated and well-grown tumor-bearing mice are grouped at random, and dosed with the RA-XII once through caudal veins every other day. While dosing, sizes of tumors are measured with a vernier caliper (a tumor volume=a long diameter×a short diameter^2/2), and weights of the nude mice are recorded and counted. The used animals are killed after dosed for 21 days, and tumors are peeled and photographed.
Tissues of the tumors obtained in Embodiment 4 are taken and lysed with an RIPA lysate. Then contents of cholesterol, triglycerides, low-density lipoproteins and high-density lipoproteins are detected by adopting commercial kits (specific methods are the same as Embodiment 2).

[5] = Weights of nude mice in the in-vivo antineoplastic test; parameters: species or system BABL/c nude mice; details: caudal vein dosing every other day, 21 days, FIG. 4
Procedure: as §2

[6] = tested on: HepG2 subcutaneously transplanted tumors; assay: In-vivo antineoplastic test, nude mouse subcutaneously transplanted tumor model; parameters: species or system BABL/c nude mice; details: caudal vein dosing every other day, 21 days, FIG. 4
Procedure: as §1, §2

[7] = tested on: tissues of HepG2 subcutaneously transplanted tumors; assay: Lipid droplets in tissues of subcutaneously transplanted tumors, Oil Red staining; type: in vivo, BABL/c nude mice; details: tumor tissues from Embodiment 4, Oil Red staining of cryosections, FIG. 6
Procedure: as §2
Tissues of the tumors obtained in Embodiment 4 are taken and embedded by OCT and then rapidly cooled. Cryostat serial sectioning is conducted with a thickness being 20 μm. Drying is conducted for 30 min at a room temperature. Fixing is conducted with 4% paraformaldehyde for 30 min. Staining is conducted with an Oil Red working solution for about 30 min at the room temperature. Washing is conducted with PBS twice. Sections are sealed with a glycerin jelly. Overnight drying is conducted, and pictures are taken under a microscope.

SMILES	number of lipid droplets in tumor cells [1]	proliferation of tumor cells (cell viability, SRB) [2]	high-density lipoproteins content in cells [3]	low-density lipoproteins content in cells [3]	total cholesterol content in cells [3]	triglycerides content in cells [3]	high-density lipoproteins in tumor tissues [4]	low-density lipoproteins in tumor tissues [4]	total cholesterol in tumor tissues [4]	triglycerides in tumor tissues [4]	weights of the nude mice [5]	growth speed of subcutaneously transplanted tumors (tumor volume) [6]	number of lipid droplets in tumor tissues [7]
COc1ccc(C[C@H]2C(=O)N[C@@H](C)C(=O)N(C)C3Cc4ccc(cc4)Oc4cc(ccc4O[C@@H]4OC(CO)[C@@H](O)[C@H](O)C4O)C[C@@H](C(=O)N[C@H](C)C(=O)N[C@@H](C)C(=O)N2C)N(C)C3=O)cc1 (some centres unmarked) [RA-XII]	obviously reduce the number of the lipid droplets	inhibits rapid proliferation of tumor cells	no obvious influence	obviously inhibit expression	obviously inhibit expression	obviously inhibit expression	no obvious influence	obviously inhibit expression	obviously inhibit expression	obviously inhibit expression	no obvious influence	obviously reduce a growth speed	obviously reduce the number of the lipid droplets
COc1ccc(C[C@H]2C(=O)N[C@@H](C)C(=O)N(C)C3Cc4ccc(cc4)Oc4cc(ccc4O)C[C@@H](C(=O)N[C@H](C)C(=O)N[C@@H](C)C(=O)N2C)N(C)C3=O)cc1 [RA-V]	–	–	no obvious influence	obviously inhibit expression	obviously inhibit expression	obviously inhibit expression	–	–	–	–	–	–	–
